Patent publication US11919902B2, “Aryl-bipyridine amine derivatives as phosphatidylinositol phosphate kinase inhibitors” (HiberCell, Inc., priority 2017, dated 2024)

Assays:
[1] = biological target: T1, PIP4K2A (full length protein, SignalChem) (Homo sapiens, UniProt P48426); test: Kinase Assay PIP4K2 A (Sprint); ADP-Glo biochemical assay; conditions: Table 2; compounds listed under IC50 range headings
T1 construct: 4 nM PIP4K2A (full length protein, SignalChem); purchased SignalChem
T1 sequence (P48426 1-406): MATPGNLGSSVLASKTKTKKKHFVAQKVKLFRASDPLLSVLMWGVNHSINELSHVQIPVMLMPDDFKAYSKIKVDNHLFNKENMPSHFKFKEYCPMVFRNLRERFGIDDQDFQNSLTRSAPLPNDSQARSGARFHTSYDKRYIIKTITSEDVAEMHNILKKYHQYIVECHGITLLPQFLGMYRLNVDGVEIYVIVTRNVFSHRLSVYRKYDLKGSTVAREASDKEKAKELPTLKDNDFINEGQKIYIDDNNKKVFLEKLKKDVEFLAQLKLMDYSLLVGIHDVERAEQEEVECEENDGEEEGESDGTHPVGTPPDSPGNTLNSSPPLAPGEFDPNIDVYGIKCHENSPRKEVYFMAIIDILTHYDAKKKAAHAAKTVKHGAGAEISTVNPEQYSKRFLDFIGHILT
Summary of the method: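 Compounds (10-point, 3-fold dilutions) were pre-incubated 15 min at RT with an enzyme/substrate mix of 4 nM full-length PIP4K2A and 100 μM PI(5)P diC8 in 20 mM MOPS pH 7.2, 25 mM MgCl2, 0.005% Tween 20. A 60 μM ATP solution was added, reaction 1 h RT; ADP read by ADP-Glo luminescence, IC50 fitted from % inhibition vs DMSO.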

GST tagged PIP4KtypeIIA = biological target: T2, GST tagged PIP4KtypeIIA (Homo sapiens, UniProt P48426); test: ADP-glo kinase assay PIP4K 2A (PIP4KtypeIIA inhibition assay); type: biochemical; conditions: Table 3; compounds listed under IC50 range headings; 10 uM ATP, 0.5 nM PIP4KIIA
T2 construct: made in house; host or cells: E. coli
T2 sequence (P48426 1-406): T1 sequence (P48426 1-406)
Summary of the method: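 E. coli-expressed GST-PIP4KtypeIIA (0.5 nM final) was preincubated 1 h at 27 °C with compound (up to 4.8 μM, 5% DMSO) in PI5P/DOPE lipid in 50 mM HEPES pH 7.3 with 10 mM MgCl2. The reaction was started with 10 μM ATP (final) and run 1 h. ADP was read by ADP-Glo luminescence via a calibration curve, and IC50 was taken from % residual activity.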

GST tagged PIP4KtypeIIB = biological target: T3, GST tagged PIP4KtypeIIB (Homo sapiens, UniProt P78356); test: Trans-FI P kinase assay PIP4K2B (PIP4KtypeIIB inhibition assay); type: biochemical; conditions: Table 4; compounds listed under IC50 range headings; 100 uM GTP, 5 nM PIP4KIIB; read-out: Trans-FI P kinase assays: PIP4K2B IC50
T3 construct: made in house; host or cells: E. coli
T3 sequence (P78356 1-416): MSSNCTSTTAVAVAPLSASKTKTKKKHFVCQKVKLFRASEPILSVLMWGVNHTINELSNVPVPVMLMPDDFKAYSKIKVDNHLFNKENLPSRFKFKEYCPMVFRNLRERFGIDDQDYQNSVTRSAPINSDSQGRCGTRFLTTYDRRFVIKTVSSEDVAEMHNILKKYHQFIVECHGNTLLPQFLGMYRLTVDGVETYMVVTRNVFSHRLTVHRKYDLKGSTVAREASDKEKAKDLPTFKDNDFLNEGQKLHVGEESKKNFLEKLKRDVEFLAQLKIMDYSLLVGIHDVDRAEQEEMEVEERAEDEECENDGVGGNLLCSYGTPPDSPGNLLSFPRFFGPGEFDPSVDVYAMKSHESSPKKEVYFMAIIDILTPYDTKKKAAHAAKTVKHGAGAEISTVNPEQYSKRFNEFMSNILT
Summary of the method: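 Purified GST-PIP4KIIB (5 nM final), 1 h preincubation with compound at 27 C, then 2 h reaction with 100 uM GTP and 80 uM PI5P plus DOPE carrier lipid in pH 7.3 HEPES/MgCl2/Triton buffer with 5% DMSO. GDP read by Transcreener FI fluorescence against a calibration curve; IC50 from % no-inhibitor activity vs log concentration.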

SMILES	IC50 [1]	IC50 (GST tagged PIP4KtypeIIA)	IC50 (GST tagged PIP4KtypeIIB)
Cc1c(-c2ccc(N3CCCC3=O)cc2)cncc1-c1ccnc2[nH]c(C(=O)N(C)C)cc12 [Example 173, N,N-dimethyl-4-(4-methyl-5-(4-(2-oxopyrrolidin-1-yl)phenyl)pyridin-3-yl)-1H-pyrrolo[2,3-b]pyridine-2-carboxamide]	0.005 to 0.1 µM	0.1 to 1 µM	0.1 to 1 µM
CNC(=O)c1cc2c(-c3cncc(-c4ccc(N5CCCC5=O)cc4)c3C)ccnc2o1 [Example 174, N-methyl-4-(4-methyl-5-(4-(2-oxopyrrolidin-1-yl)phenyl)pyridin-3-yl)furo[2,3-b]pyridine-2-carboxamide]	0.005 to 0.1 µM	0.1 to 1 µM	0.1 to 1 µM
COC(=O)c1cc2c(-c3cncc(-c4ccc(N5CCCC5=O)cc4)c3C)ccnc2[nH]1 [Example 175, methyl 4-(4-methyl-5-(4-(2-oxopyrrolidin-1-yl)phenyl)pyridin-3-yl)-1H-pyrrolo[2,3-b]pyridine-2-carboxylate]	0.005 to 0.1 µM	0.01 to 0.1 µM	0.01 to 0.1 µM
Cn1cc(-c2cncnc2)c2cc(-c3cncc(-c4ccc(N5CCCC5=O)cc4)c3)cnc21 [Example 176, 1-(4-(5-(1-methyl-3-(pyrimidin-5-yl)-1H-pyrrolo[2,3-b]pyridin-5-yl)pyridin-3-yl)phenyl)pyrrolidin-2-one]	0.005 to 0.1 µM	0.1 to 1 µM	1 to 2.5 µM
O=C1CCCN1c1ccc(-c2cncc(-n3cnc4ccccc43)c2)cc1 [Example 177, 1-(4-(5-(1H-benzo[d]imidazol-1-yl)pyridin-3-yl)phenyl)pyrrolidin-2-one]	0.1 to 1 µM	0.1 to 1 µM	0.1 to 1 µM
CN(CC1CCNCC1)C(=O)c1ccc(-c2cncc(-c3ccncc3)c2)cc1 [Example 179, 4-([3,4′-bipyridin]-5-yl)-N-methyl-N-(piperidin-4-ylmethyl)benzamide]	< 5 µM	> 5 µM	> 5 µM
CN(CC1CCCNC1)C(=O)c1ccc(-c2cncc(-c3ccncc3)c2)cc1 (stereo not drawn) [Example 180, 4-([3,4′-bipyridin]-5-yl)-N-methyl-N-(piperidin-3-ylmethyl)benzamide]	< 5 µM	> 5 µM	> 5 µM
CN(C[C@H]1CC[C@H](N)CC1)C(=O)c1ccc(-c2cncc(-c3ccncc3)c2)cc1 [Example 181, 4-([3,4′-bipyridin]-5-yl)-N-(((1r,4r)-4-aminocyclohexyl)methyl)-N-methylbenzamide]	< 5 µM	> 5 µM	> 5 µM
CN(C)C(=O)c1ccc(-c2cc(-c3ccnc(CNC(=O)c4ccc(NC(=O)OC(C)(C)C)cc4)c3)cnc2N)nc1 [Example 187, tert-butyl(4-(((2′-amino-5-(dimethylcarbamoyl)-[2,3′:5′,4″-terpyridin]-2″-yl)methyl)carbamoyl)phenyl)carbamate]	2.5 to 5 µM	> 5 µM	> 5 µM
CN(C)C(=O)c1ccc(-c2cc(-c3ccnc(CNC(=O)c4ccc(N)cc4)c3)cnc2N)nc1 [Example 188, 2′-amino-2″-((4-aminobenzamido)methyl)-N,N-dimethyl-[2,3′:5′,4″-terpyridine]-5-carboxamide]	1 to 2.5 µM	> 5 µM	1 to 2.5 µM
CN(C)C(=O)c1ccc(-c2cc(-c3ccnc(CNC(=O)c4cccc(NC(=O)OC(C)(C)C)c4)c3)cnc2N)nc1 [Example 190, tert-butyl (3-(((2′-amino-5-(dimethylcarbamoyl)-[2,3′:5′,4″-terpyridin]-2″-yl)methyl)carbamoyl)phenyl)carbamate]	2.5 to 5 µM	> 5 µM	> 5 µM
CN(C)C(=O)c1ccc(-c2cc(-c3ccnc(CNC(=O)c4cccc(N)c4)c3)cnc2N)nc1 [Example 191, 2′-amino-2″-((3-aminobenzamido)methyl)-N,N-dimethyl-[2,3′:5′,4″-terpyridine]-5-carboxamide]	1 to 2.5 µM	> 5 µM	1 to 2.5 µM
CN(C)C(=O)c1ccc(-c2cc(-c3ccnc(CNC(=O)CCc4cccc(NC(=O)OC(C)(C)C)c4)c3)cnc2N)nc1 [Example 193, tert-butyl (3-(3-(((2′-amino-5-(dimethylcarbamoyl)-[2,3′:5′,4″-terpyridin]-2″-yl)methyl)amino)-3-oxopropyl)phenyl)carbamate]	1 to 2.5 µM	> 5 µM	2.5 to 5 µM
CN(C)C(=O)c1ccc(-c2cc(-c3ccnc(CNC(=O)CCc4cccc(N)c4)c3)cnc2N)nc1 [Example 194, 2′-amino-2″-((3-(3-aminophenyl)propanamido)methyl)-N,N-dimethyl-[2,3′:5′,4″-terpyridine]-5-carboxamide]	1 to 2.5 µM	> 5 µM	2.5 to 5 µM
CN(C)C/C=C/C(=O)Nc1cccc(CCC(=O)NCc2cc(-c3cnc(N)c(-c4ccc(C(=O)N(C)C)cn4)c3)ccn2)c1 [Example 195, (E)-2′-amino-2″-((3-(3-(4-(dimethylamino)but-2-enamido)phenyl)propanamido)methyl)-N,N-dimethyl-[2,3′:5′,4″-terpyridine]-5-carboxamide]	< 5 µM	> 5 µM	2.5 to 5 µM
CN(C)C(=O)c1ccc(-c2cc(-c3ccnc4nc[nH]c34)cnc2N)nc1 [Example 213, 2′-amino-5′-(1H-imidazo[4,5-b]pyridin-7-yl)-N,N-dimethyl-[2,3′-bipyridine]-5-carboxamide]	0.1 to 1 µM	2.5 to 5 µM	1 to 2.5 µM
CN(C)C(=O)c1ccc(-c2cc(-c3[nH]nc4ncncc34)cnc2N)nc1 [Example 214, 2′-amino-N,N-dimethyl-5′-(2H-pyrazolo[3,4-d]pyrimidin-3-yl)-[2,3′-bipyridine]-5-carboxamide]	0.1 to 1 µM	0.1 to 1 µM	0.1 to 1 µM
O=C1CCCN1c1ccc(-c2cncc(-c3ccnc4[nH]ncc34)c2)cc1 [Example 215, 1-(4-(5-(2H-pyrazolo[3,4-b]pyridin-4-yl)pyridin-3-yl)phenyl)pyrrolidin-2-one]	0.005 to 0.1 µM	0.1 to 1 µM	0.1 to 1 µM
CN(C)C(=O)c1ccc(-c2cc(-c3cc(Nc4cccc(N)c4)ncn3)cnc2N)nc1 [Example 216, 2′-amino-5′-(6-((3-aminophenyl)amino)pyrimidin-4-yl)-N,N-dimethyl-[2,3′-bipyridine]-5-carboxamide]	0.1 to 1 µM	0.1 to 1 µM	0.1 to 1 µM
CN(C)C(=O)c1ccc(-c2cc(-c3cc(N)ncn3)cnc2N)nc1 [Example 217, 2′-amino-5′-(6-aminopyrimidin-4-yl)-N,N-dimethyl-[2,3′-bipyridine]-5-carboxamide]	0.1 to 1 µM	0.1 to 1 µM	0.1 to 1 µM
Cn1ncc2c(-c3cncc(-c4ccc(N5CCCC5=O)cc4)c3)ccnc21 [Example 218, 1-(4-(5-(1-methyl-1H-pyrazolo[3,4-b]pyridin-4-yl)pyridin-3-yl)phenyl)pyrrolidin-2-one]	0.005 to 0.1 µM	0.1 to 1 µM	0.1 to 1 µM
CN(C)C(=O)c1ccc(-c2cc(-c3cc(Nc4cccc(NC(=O)c5cccc(N)c5)c4)ncn3)cnc2N)nc1 [Example 219, 2′-amino-5′-(6-((3-(3-aminobenzamido)phenyl)amino)pyrimidin-4-yl)-N,N-dimethyl-[2,3′-bipyridine]-5-carboxamide]	0.1 to 1 µM	1 to 2.5 µM	0.1 to 1 µM
O=C1CCCN1c1ccc(-c2cncc(-c3ccnc4cn[nH]c34)c2)cc1 [Example 220, 1-(4-(5-(2H-pyrazolo[4,3-b]pyridin-7-yl)pyridin-3-yl)phenyl)pyrrolidin-2-one]	0.1 to 1 µM	0.1 to 1 µM	0.1 to 1 µM
